Reference: patent publication US20170240593A1, “AROMATIC-CATIONIC PEPTIDES AND USES OF SAME” (Cornell University, priority 2011, published 2017)
Entries after “also recorded” stand apart in the source; their conditions may differ. Non-standard residues stand in square brackets, D forms with d. No end group written: not given here.

Key:
mitochondrial ROS = experiment: Cellular and animal studies of mitochondrial ROS and function
[1] = system: animal models of ischemia-reperfusion injury, neurodegenerative diseases, and metabolic syndrome; experiment: Animal models of ischemia-reperfusion injury, neurodegenerative diseases, and metabolic syndrome; format: in vivo
[2] = system: H2O2, hydroxyl radical, and peroxynitrite; experiment: Neutralization of reactive species and lipid peroxidation; format: biochemical
cytochrome c [3] = molecular target: T1, cytochrome c (Homo sapiens, UniProt P99999); experiment: Cytochrome c reduction by absorption spectroscopy (absorbance at 550 nm); format: biochemical; settings: for rate of cytochrome c reduction: glutathione (GSH) as reducing agent, absorbance at 550 nm, FIG. 1B, FIG. 13
Protocol: Cytochrome c reduction: increasing amounts of aromatic-cationic peptides were added to a solution of oxidized cytochrome c. The formation of reduced cytochrome c was monitored by absorbance at […]. The rate of cytochrome c reduction was determined by non-linear analysis (Prizm software).
Time-resolved UV-Visible absorption spectroscopy was used to study the electron transport process of cytochrome c in the presence of peptides. Reduced cytochrome c was monitored by absorbance at a broad-band spectral range (200-1100 nm). The absorption changes were recorded with a UV/Visible spectrophotometer (Ultrospec 3300 pro, GE) in quartz cells with path lengths of 1 or 2 mm. N-acetylcysteine (NAC) and glutathione were used as electron donors to reduce oxidized cytochrome c. The rate constant of cytochrome c reduction was estimated by adding various concentrations of peptides. The dose dependence of the peptides was correlated to the cytochrome c reduction kinetics.
Absorption spectroscopy (UltroSpec 3300 Pro; 220-1100 nm) was used to determine if SS-31 modulates cytochrome c reduction (FIG. 1). Reduction of cytochrome c with glutathione is associated with multiple shifts in the Q band (450-650 nm), with a prominent shift at 550 nm.
SS-31 and SS-20 can accelerate the kinetics of cytochrome c reduction induced by glutathione (GSH) as a reducing agent (FIG. 13). Reduction of cytochrome c was monitored by increase in absorbance at 550 nm. […] Similar results were obtained using N-acetylcysteine (NAC) as a reducing agent (not shown).

cytochrome c [4] = molecular target: T1, cytochrome c; experiment: Circular dichroism of Soret band of cytochrome c; format: biochemical; settings: FIG. 4
Protocol: Circular dichroism (Olis spectropolarimeter, DSM20) was carried out to monitor Soret band (negative peak at 415 nm), as a probe for the π-π* heme environment in cytochrome c (FIG. 4). […] The increase in π-π* interaction around the heme would enhance electron tunneling which would be favorable for electron diffusion.

[5] = system: isolated rat kidney mitochondria; experiment: O2 consumption of isolated rat kidney mitochondria (Oxygraph); format: biochemical; settings: for electron flux, as measured by O2 consumption: 100 μM peptide, 0.5 mM succinate (complex II substrate) and 400 μM ADP, FIG. 14
Protocol: (§1) Mitochondrial O2 consumption and ATP production: Fresh mitochondria were isolated from rat kidney as described previously. Electron flux was measured by O2 consumption (Oxygraph Clark electrode) as previously described using different substrates for C1 (glutamate/malate), C2 (succinate), and C3 (TMPD/ascorbate). Assays were carried out under low substrate conditions in order to avoid saturating the enzyme reactions. ATP production in isolated mitochondria was determined kinetically using the luciferase method (Biotherma) in a 96-well luminescence plate reader (Molecular Devices). The initial maximal rate for ATP synthesis was determined over the first minute.
Oxygen consumption of isolated rat kidney mitochondria was determined using the Oxygraph (FIG. 5). Rates of respiration were measured in the presence of different concentrations of SS-31 in state 2 (400 μM ADP only), state 3 (400 μM ADP and 500 μM substrates) and state 4 (substrates only). All experiments were done in triplicate with n=4-7.
(§2) SS-20 or SS-31 was added at 100 μM concentrations to isolated mitochondria in respiration buffer containing 0.5 mM succinate (complex II substrate) and 400 μM ADP.

isolated mitochondria = experiment: ATP synthesis in isolated mitochondria; format: biochemical, rat; settings: for rate of ATP production: isolated mitochondria energized with low concentrations of succinate, FIG. 15
Protocol: as §1
The rate of mitochondrial ATP synthesis was determined by measuring ATP in respiration buffer collected from isolated mitochondria 1 min after addition of […] (FIG. 6). ATP was assayed by HPLC. All experiments were carried out in triplicate, with n=3.
as §2

[6] = system: cytochrome c-depleted mitoplasts made from once-frozen rat kidney mitochondria; experiment: O2 consumption in cytochrome c-depleted mitoplasts; format: biochemical; settings: 500 μM Succinate, 100 μM SS-31; FIG. 7
Protocol: Rates of respiration were measured in the presence of 500 μM Succinate with or without 100 μM SS-31. The experiment was carried out in triplicate, with n=3.

cytochrome c [7] = molecular target: T1, cytochrome c; experiment: Photoluminescence of cytochrome c (532.8 nm excitation, 650 nm emission); format: biochemical; settings: Nd:YDO4 laser 532.8 nm
Description: A light source 140, such as a laser or light-emitting diode (LED), illuminates the peptide-doped cytochrome c layer 110 at an excitation wavelength, such as 532.8 nm. […] (As understood by those skilled in the art, the gap between the valence band and the excited state is […] to the excitation wavelength.) After a short relaxation time, the electron decays from the excited state to a conduction band. When the electron relaxes to valence band from the conduction band, the peptide-doped cytochrome c layer 110 emits a photon at a luminescence wavelength, such as 650 nm, fixed by the gap between the valence and conduction bands.
Thus, as the aromatic-cationic peptide concentration in the peptide-doped cytochrome c layer 110 varies due to changes in the pH and/or temperature of the test substrate 130, the intensity at the luminescence wavelength varies as well. Detecting this change in intensity with a photodetector 150 yields an indication of the pH and/or temperature of the test substrate 130.
Photoluminescence (PL) was carried out to examine the effects of SS-31 on the electronic structure of conduction band of the […] of cytochrome c, an energy state responsible for electronic transport (FIG. 3). A […] laser (532.8 nm) was used to excite electrons in cytochrome c (FIG. 2A). Strong PL emission in cytochrome c state can be clearly identified at 650 nm (FIG. 2B).

cytochrome c [8] = molecular target: T1, cytochrome c; experiment: Cyclic voltammetry of cytochrome c; format: biochemical

T1 sequence (P99999 whole entry, species assumed): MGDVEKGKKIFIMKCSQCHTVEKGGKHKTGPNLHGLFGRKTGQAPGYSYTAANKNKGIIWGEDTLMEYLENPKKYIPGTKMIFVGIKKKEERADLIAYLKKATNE

Substance	mitochondrial ROS and mitochondrial function (mitochondrial ROS)	efficacy in animal models [1]	lipid peroxidation [2]	neutralization of H2O2, hydroxyl radical, and peroxynitrite [2]	rate of NAC-induced cytochrome c reduction (cytochrome c [3]; N-acetylcysteine (NAC) as reducing agent)	rate of cytochrome c reduction (cytochrome c [3])	reduction of cytochrome c by peptide alone (cytochrome c [3]; peptide alone at 100 μM, no reducing agent)	spectral weight shift at 550 nm of cytochrome c (cytochrome c [3]; reduction of cytochrome c with glutathione, FIG. 1A)	denaturing of cytochrome c (cytochrome c [4])	Soret band peak position after red shift (cytochrome c [4]; negative peak at 415 nm without peptide) [nm]	electron flux, as measured by O2 consumption [5]	rates of respiration (O2 consumption) ([5]; different concentrations of SS-31, state 2, state 3 and state 4, FIG. 5)	rate of ATP synthesis (isolated mitochondria; ATP by HPLC 1 min after addition of 400 mM ADP, FIG. 6)	rate of ATP production (isolated mitochondria)	mitochondrial O2 consumption (rates of respiration) in cytochrome c-depleted mitoplasts [6]	PL intensity of cytochrome c at 650 nm (cytochrome c [7])	current for reduction and oxidation processes of cytochrome c (cytochrome c [8]; Au working electrode, Ag/AgCl reference, FIG. 2 upper panel)	reduction/oxidation potentials of cytochrome c (cytochrome c [8]; FIG. 2 upper panel)	increase of current (electron diffusion rate) (cytochrome c [8]; cytochrome c:SS-31=1:2, TBE buffer, FIG. 2 lower panel) [%]
D-Arg-2′6′-Dmt-Tyr-Lys-Phe-NH2	reduces mitochondrial ROS and protect mitochondrial function	remarkable efficacy	inhibit lipid peroxidation	can neutralize H2O2, hydroxyl radical, and peroxynitrite	–	–	–	–	–	–	–	–	–	–	–	–	–	–	–
D-Arg-2′,6′-Dmt-Lys-Phe-NH2 [SS-31]	–	–	–	–	dose-dependently increased	increased; also recorded: accelerate	did not reduce cytochrome c	significant spectral weight shift	without denaturing	440	promote electron flux	promoted electron transfer to oxygen without uncoupling mitochondria	dose-dependently increased	significant increase	Enhances Respiration	increased dose-dependently	increased current	does not alter	~200
F[dR]FK-NH2 [SS-20]	–	–	–	–	–	accelerate	–	–	–	–	promote electron flux	–	–	significant increase	–	–	–	–	–
